Test results reported in article PMC7216909 (Chembiochem, 2020).

Biological target: T1, FOYE-1 (Ferrovum sp. JA12, UniProt A0A0R0LNE8)
T1 sequence (A0A0R0LNE8 1-354): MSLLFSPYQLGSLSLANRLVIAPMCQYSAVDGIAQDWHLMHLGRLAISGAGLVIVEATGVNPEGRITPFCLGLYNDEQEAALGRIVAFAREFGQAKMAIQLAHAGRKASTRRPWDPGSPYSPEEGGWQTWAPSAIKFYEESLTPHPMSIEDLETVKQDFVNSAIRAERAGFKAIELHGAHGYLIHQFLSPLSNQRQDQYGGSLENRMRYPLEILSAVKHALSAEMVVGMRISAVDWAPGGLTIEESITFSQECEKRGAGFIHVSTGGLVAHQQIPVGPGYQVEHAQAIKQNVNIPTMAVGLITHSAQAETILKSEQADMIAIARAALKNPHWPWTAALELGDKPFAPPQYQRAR
Assay: FMN quantification at […] nm in purified protein
Assay type: binding
Settings: co-purified flavin cofactor; partly saturated holoprotein

Cc1cc2nc3c(=O)[nH]c(=O)nc-3n(C[C@H](O)[C@H](O)[C@H](O)COP(=O)(O)O)c2cc1C [FMN]
FMN saturation: found to be only partially saturated with the flavin mononucleotide (FMN) cofactor
